Data on two compounds can be found in PubChem BioAssay (NCI).

Test systems include NCI-H23 lung; CAKI-1 renal; MCF7 breast; NCI-H522 lung; OVCAR-8 ovarian; LOX IMVI melanoma; COLO 205 colon; EKVX NSCLC; HS 578T breast; UO-31 renal.
Holding throughout (assay): inhibition of tumour cell growth, NCI panel, 48 h

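Each compound was tested at five concentrations against cells in 96-well plates for 48 hours. GI50: concentration for 50% inhibition of growth. At the TGI there is no net growth.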

Consider `CC(C)(C)[Si](C)(C)OC1[C@@H](O[Si](C)(C)C(C)(C)C)[C@@H](CNC(=O)NC(=O)CCl)O[C@H]1n1cnc2c(NC(=O)Nc3ccccc3)ncnc21` (stereo not given in full), for which the GI50 in the assay with NCI-H23 lung was 756 nM; in the assay with CAKI-1 renal, 989 nM; in the assay on MCF7 breast it was 760 nM; with NCI-H522 lung, 96 nM; in the assay on OVCAR-8 ovarian it was 307 nM; in the assay on LOX IMVI melanoma it was 82.9 nM. The GI50 was 1410 nM in the assay with COLO 205 colon, 1010 nM in the assay on EKVX NSCLC, 1300 nM with HS 578T breast and 76.3 nM in the assay on UO-31 renal. The TGI in the assay on NCI-H23 lung is 1840 nM; in the assay with CAKI-1 renal it was 2820 nM; with MCF7 breast, 1620 nM; in the assay with NCI-H522 lung it was 196 nM; with OVCAR-8 ovarian it was 1420 nM; in the assay with LOX IMVI melanoma, 180 nM. Moreover, the TGI in the assay with COLO 205 colon came to 3500 nM; with EKVX NSCLC, 2980 nM; in the assay on HS 578T breast, 12500 nM; in the assay with UO-31 renal, 200 nM.
Take `CCCCCCCCCCCCCCCCCC(=O)OCC(COC(=O)CCCN)OC(=O)CCCN` (stereo not given): the TGI with NCI-H23 lung came to 31900 nM; in the assay with CAKI-1 renal, 35500 nM; with MCF7 breast it was 47100 nM; with NCI-H522 lung it was 50400 nM; with OVCAR-8 ovarian it was 37100 nM; with LOX IMVI melanoma it was 42500 nM. The TGI in the assay with COLO 205 colon worked out at 31100 nM; in the assay with EKVX NSCLC, 53900 nM; in the assay on HS 578T breast, 43700 nM; with UO-31 renal, 3630 nM.
